Experiment [1] has as its target T1, purified 70S ribosome (Escherichia coli, UniProt P0A7M6+P0ADZ0+P60723+P61175).
T1 construct: obtain highly pure E. coli 70S ribosomes; made in house; host or cells: E. coli BW25113 (native ribosomes isolated, not recombinant)
As to the kind of experiment: Fluorescence polarization binding, purified 70S ribosome. More on the design: species or system E. coli. The procedure: (§1) E. coli BW25113 were grown in LB medium and harvested by centrifugation (5000× g, 15 min, 4 °C) at an OD600 of 3-4. Cell pellets were washed in ribosome preparation buffer (20 mmol/L HEPES-KOH, 6 mmol/L MgCl2, 30 mmol/L NH4Cl, pH 7.6, 4 °C), centrifuged (4100× g, 30 min, 4 °C), and suspended in ribosome preparation buffer ([…]) containing freshly added ß-mercaptoethanol (4 mmol/L). Lysozyme was added to the resuspended cells and incubated for 30 min on ice. Cells were disrupted in six cycles using a FastPrep-24^TM 5 G instrument (MP Biomedicals, Eschwege, Germany) with the BigPrep 50 mL setting (40 s, 4.0 m/s) and one-minute incubation on ice between cycles. […]
(§2) Ribosomes were purified by anion exchange chromatography using an Äkta Pure System (GE Healthcare, Freiburg, Germany) and a CIM®QA column (8 mL, 2 µm channels; Sartorius Stedim Biotech GmbH, Göttingen, Germany). […] The ribosome concentration was estimated by recording the absorbance at 260 nm (considering that 15 AU corresponds to a ribosome concentration of 1 g/L). […]
Dissociation constants (Kd) were determined using purified 70S ribosome, 50S or 30S subunit and cf-labeled peptides in ribosome preparation buffer. […] Fluorescence polarization was measured on a […]^TM microplate reader (Beckman Coulter, Krefeld, Germany) in the top reading position (λexc = 485 nm, λem = 535 nm). […]

For another experiment, the target named is T2, 50S subunit (Escherichia coli, UniProt P0A7M6+P0ADZ0+P60723+P61175).
T2 construct: Ribosomes were isolated from the E. coli strain MRE600; made in house; native subunits isolated in house
As to the kind of experiment: Fluorescence polarization binding, 50S subunit. More on the design: species or system E. coli. The procedure:
Several hundred grams of log-phase cells were commercially produced and purchased. Cells were washed in buffer A (20 mmol/L HEPES (pH 7.6), 6 mmol/L MgAc2, 30 mmol/L AcOK, 4 mmol/L ß-mercaptoethanol) and lysed in an M-110L microfluidizer (Microfluidics) at 17,000 psi and 4 °C. Cell debris was removed by low-speed centrifugation (15,000× g, 10 min, 4 °C) to obtain S30 lysate. Crude ribosomes, mostly containing 70S ribosomes, were pelleted by ultracentrifugation (40,000× g, 17 h, 4 °C) and resuspended in buffer A. The 70S ribosomes were separated from 30S and 50S subunits by zonal ultracentrifugation (Beckman Ti-15; 6–40% sucrose gradient in buffer A, 44,000× g, 16 h, 4 °C). The 70S-containing fractions were collected, and the ribosomes were sedimented by ultracentrifugation (40,000× g, 17 h, 4 °C). Since these 70S ribosomes still contained tRNAs and mRNA, they were resuspended in buffer B (20 mmol/L HEPES (pH 7.6), 1 mmol/L MgAc2, 0.2 mol/L NH4Ac, 4 mmol/L ß-mercaptoethanol), which allows for dissociation into 30S and 50S subunits, and subjected to a second zonal centrifugation (Beckman Ti-15, 44,000× g, 16 h, 4 °C), but this time in a 6–40% sucrose gradient prepared in buffer B. Fractions containing 30S and 50S subunits were collected, sedimented by ultracentrifugation (40,000× g, 17 h, 4 °C), resuspended in buffer A, aliquoted, shock-frozen in liquid nitrogen, and stored at −80 °C.
Dissociation constants (Kd) were determined using purified 70S ribosome, 50S or 30S subunit and cf-labeled peptides in ribosome preparation buffer. Briefly, black 384-well plates (flat bottom, 781209, Greiner Bio-One GmbH) were blocked with casein (0.5%, w/v) in PBS containing 0.05% (v/v) Tween 20 at 4 °C overnight and washed three times with phosphate buffer. A 2-fold dilution series (22 steps) of pure 70S ribosome, 50S or 30S subunit (10 μL per well) in ribosome preparation buffer was prepared in a black 384-well plate. The cf-labeled peptide was dissolved in ribosome preparation buffer (10 μL, 40 nmol/L), added to each well, centrifuged (500 x g, 2 min), and incubated at 28 ± 1 °C for 90 min. Fluorescence polarization was measured on a […]^TM microplate reader (Beckman Coulter, Krefeld, Germany) in the top reading position (λexc = 485 nm, λem = 535 nm). Data were fitted to a nonlinear dose-response logistic transition equation [y = y0 + a/(1 + (x/x0)b)] using the Levenberg-Marquardt algorithm, with Kd represented by the x0 coefficients (GraphPad Prism for Windows v. 10.1.2, San Diego, CA, USA).

Experiment [2] concerns the target T1, purified 70S ribosome. Nature of the experiment: Fluorescence polarization competition with cf-Api88 on purified 70S ribosome. Particulars: competition with cf-Api88, pure 70S ribosome; 28 °C. The class given is binding, E. coli. The procedure: as §1, §2
Inhibition constants (Ki) were determined for the pure 70S ribosome using cf-labeled and unlabeled peptides in the ribosome preparation buffer. […] Fluorescence polarization was measured on a […]^TM microplate reader in the top reading position (λexc = 485 nm, λem = 535 nm). […] The Ki values were calculated as described by Mathias and Jung[39].

In the next experiment the target is recombinant TF. Particulars: fluorescence polarization; cited from earlier work. The source says: Binding sites two and three are close to uL23 and uL29, which is also supported by Api88(Y7B) cross-links. These ribosomal proteins are located adjacent to the PET exit and are binding hubs for the molecular chaperone trigger factor (TF)[34] and the signal recognition particle (SRP), a universally conserved and essential cellular machinery that directs proteins destined for membrane integration to the plasma membrane[35],[36]. This co-translational targeting is initiated by a hydrophobic signal sequence in the nascent protein chain recognized by SRP as it exits the PET. It is appealing to hypo ...

The next experiment addresses DnaK. Particulars: read-out: Kd (DnaK); peer review response; cited from earlier work. The source says:
We now introduce trigger factor in line 446 as “…molecular chaperone…” In addition, we hypothesize that Api88 binds to the ribosome within the contact area of TF, which interacts with uL23 and uL29, two proteins we report here as cross-linked to Api88.

“Also recorded” adds a separate entry of the source. Where a SMILES comes first, the peptide text is derived from it. The star is where a group is joined. Orn(α-tetramethylguanidino) = CN(C)C(=N[C@@H](CCCN)C(=O)*)N(C)C

In the case of `CC[C@H](C)[C@H](NC(=O)[C@H](Cc1ccc(O)cc1)NC(=O)[C@@H](NC(=O)[C@@H]1CCCN1C(=O)[C@H](CCCNC(=N)N)NC(=O)[C@H](CC(N)=O)NC(=O)[C@H](CC(N)=O)NC(=O)[C@H](CCCN)N=C(N(C)C)N(C)C)C(C)C)C(=O)N1CCC[C@H]1C(=O)N[C@@H](CCCNC(=N)N)C(=O)N1CCC[C@H]1C(=O)N[C@@H](CCCNC(=N)N)C(=O)N1CCC[C@H]1C(=O)N1CCC[C@H]1C(=O)N[C@@H](Cc1c[nH]cn1)C(=O)N1CCC[C@H]1C(=O)N[C@@H](CCCNC(=N)N)C(=O)N[C@@H](CC(C)C)C(N)=O` [Api88] ({Orn(α-tetramethylguanidino)}-NNRPVYIPRPRPPHPRL-NH2), the Kd at purified 70S ribosome [1] (apparent Kd, cf-labeled PrAMP (10 μL, 40 nmol/L), ribosome preparation buffer (20 mmol/L HEPES-KOH, 6 mmol/L MgCl2, 30 mmol/L NH4Cl, pH 7.6), 28 °C, 90 min, mean of triplicates, read-out: Kd 70S ribosome pure) turned out to be 1820 ± 80 nM; at 50S subunit (apparent Kd, cf-labeled PrAMP (10 μL, 40 nmol/L), ribosome preparation buffer pH 7.6, 28 °C, 90 min, mean of triplicates), 580 ± 50 nM. For the same molecule, the “higher affinity of Api88 than Api137” value on purified 70S ribosome [1] (purified 70S ribosomes and 50S subunits) is reported as 2-3 fold. Also, on 50S subunit (ratio 70S / 50S, cf-labeled), the “Kd for 50S subunit lower than for 70S ribosome” value was “threefold”.
With `CC[C@H]1OC(=O)[C@H](C)[C@@H](O[C@H]2C[C@@](C)(OC)[C@@H](O)[C@H](C)O2)[C@H](C)[C@@H](O[C@@H]2O[C@H](C)C[C@H](N(C)C)[C@H]2O)[C@](C)(O)C[C@@H](C)C(=O)[C@H](C)[C@@H](O)[C@]1(C)O` [erythromycin], the “displacement of cf-Api88 / decrease in fluorescence polarization” value at purified 70S ribosome [2] is “significantly competing with the binding of cf-Api88; also recorded: reduced the fluorescence polarization to a much lesser extent”.
Turning to “GNNRPVYIPQPRPPHPRL [apidaecin 1b, reference compound]”, the Kd on recombinant TF was more than 100000 nM; at DnaK, approximately 5000 nM.

The record behind these values is PMC11087509, “Multimodal binding and inhibition of bacterial ribosomes by the antimicrobial peptides Api137 and Api88” (Nature Communications, 2024).
